In ChEMBL document CHEMBL4196075, “Structure-based optimization of a series of selective BET inhibitors containing aniline or indoline groups” (Eur J Med Chem, 2018):

What was measured:
Assay type in all cases: ADME, organism-based
Conditions in all cases: in vivo
[1] = Tmax in ICR (CD-1) mouse at 20 mg/kg, po via gavage by mass spectrometric method
[2] = AUC (0 to t) in ICR (CD-1) mouse at 20 mg/kg, po via gavage by mass spectrometric method
[3] = Cmax in ICR (CD-1) mouse at 20 mg/kg, po via gavage by mass spectrometric method; set-up: dose 20 mg/kg, route oral
[4] = AUC (0 to t) in ICR (CD-1) mouse at […], po via gavage by mass spectrometric method
[5] = Tmax in ICR (CD-1) mouse at […], po via gavage by mass spectrometric method
[6] = Cmax in ICR (CD-1) mouse at […], po via gavage by mass spectrometric method

Row | Tmax [1] | AUC(0-t) [2] | Cmax [3] | AUC(0-t) [4] | Tmax [5] | Cmax [6] | Compound
1 | 18 min | 2660 ng·h/mL | 1780 ng/mL | – | – | – | Cc1ccc(NC(=O)c2ccc3c(c2)N(C2CC2)C(C)C(=O)N3C)c(C)c1 (centres undefined)
2 | 15 min | 189 ng·h/mL | 335 ng/mL | – | – | – | Cc1ccc2c(c1)CCN2C(=O)c1ccc2c(c1)N(C1CC1)C(C)C(=O)N2C (centres undefined)
3 | – | – | – | 383 ng·h/mL | 19.8 min | 189 ng/mL | Cc1ccc2c(c1)CCN2C(=O)c1ccc2c(n1)N(C1CC1)C(C)C(=O)N2C (centres undefined)
